According to patent publication US9062033B2, “Chemical compounds” (Rottapharm Biotech S.r.l., priority 2011, dated 2015):
Read-outs that look alike come from different tables or passages of the source.

Experiments:
human OX1 receptors = molecular target: T1, human OX1 receptors (Homo sapiens, UniProt O43613); test: Antagonistic activity against human OX1 receptor, [Ca2+]i fluorimetry (Fluo-4NW) in transfected CHO cells activated with orexin-A; type: cell-based; settings: for Kb: CHO cells transfected with human recombinant OX1, orexin-A 3 nM, pKb = co-logarithm of apparent dissociation constant, modified Cheng Prusoff; for pKb OX1: comparison table with compound of WO2011006960
T1 construct: expressed in transfected cells; host or cells: CHO cells
T1 sequence (O43613 1-425): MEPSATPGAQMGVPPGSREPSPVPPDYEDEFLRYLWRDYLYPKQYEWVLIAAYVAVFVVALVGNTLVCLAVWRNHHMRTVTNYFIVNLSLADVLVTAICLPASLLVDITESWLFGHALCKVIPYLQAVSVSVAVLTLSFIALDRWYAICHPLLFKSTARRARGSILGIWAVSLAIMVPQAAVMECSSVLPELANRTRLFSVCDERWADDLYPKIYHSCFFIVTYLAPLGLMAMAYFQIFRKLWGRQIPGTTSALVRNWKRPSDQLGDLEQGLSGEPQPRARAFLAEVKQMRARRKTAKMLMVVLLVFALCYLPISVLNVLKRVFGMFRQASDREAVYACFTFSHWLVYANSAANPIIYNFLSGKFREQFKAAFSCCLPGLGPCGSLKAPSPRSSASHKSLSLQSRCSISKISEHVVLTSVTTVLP
Protocol: (§1) In a typical experiment, the antagonistic activity against human OX1 and OX2 receptors is determined by using CHO e HEK-293 cells transfected with human recombinant OX1 and OX2 receptors respectively, seeded at density of 2 and 3×10^4 cells/well respectively in a 96 fluorimetry well plate. Thus the plate was loaded with the calcium dye (Fluo-4NW/probenecid in HBSS, Hepes 20 mM, pH 7.4; Invitrogen) at 37° C. for 60 min. Afterward the temperature was equilibrated at 22° C. for 15 min and the [Ca2+]i measured directly on the plate by using a fluorescent plate reader (CellLux Perkin Elmer).
(§2) Invention compounds were dissolved in DMSO, diluted in HBSS (DMSO, 0.3% final) and added to the wells. After 5 min CHO cells were activated with orexin-A, 3 nM while HEK-293 cells were activated with orexin-B, 10 nM.
(§3) The compounds, dissolved in DMSO and diluted in the medium (DMSO, 0.3% final), have been analysed in the 1 nM-1 μM concentration range (every concentration in duplicate). The antagonistic activity has been expressed as pKb (co-logarithm of the apparent dissociation constant calculated by using the modified Cheng Prusoff equation).
(§4) The results are expressed as percent of control specific […] response ((measured specific response/control specific agonist response)×100) obtained in the presence of the test compounds.
(§5) The IC50 values (concentration causing a half-maximal inhibition of the control specific agonist response) were determinated by non-linear regression analysis of the concentration curves generated with mean replicate values using hill equation curve fitting. The IC50 values are obtained by the arithmetical mean of at least two experiments. Compounds of the following example tested according to this example gave pKbs as follows: […]

human OX2 receptors = molecular target: T2, human OX2 receptors (Homo sapiens, UniProt O43614); test: Antagonistic activity against human OX2 receptor, [Ca2+]i fluorimetry (Fluo-4NW) in transfected HEK-293 cells activated with orexin-B; type: cell-based
T2 construct: expressed in transfected cells; host or cells: HEK-293 cells
T2 sequence (O43614 1-444): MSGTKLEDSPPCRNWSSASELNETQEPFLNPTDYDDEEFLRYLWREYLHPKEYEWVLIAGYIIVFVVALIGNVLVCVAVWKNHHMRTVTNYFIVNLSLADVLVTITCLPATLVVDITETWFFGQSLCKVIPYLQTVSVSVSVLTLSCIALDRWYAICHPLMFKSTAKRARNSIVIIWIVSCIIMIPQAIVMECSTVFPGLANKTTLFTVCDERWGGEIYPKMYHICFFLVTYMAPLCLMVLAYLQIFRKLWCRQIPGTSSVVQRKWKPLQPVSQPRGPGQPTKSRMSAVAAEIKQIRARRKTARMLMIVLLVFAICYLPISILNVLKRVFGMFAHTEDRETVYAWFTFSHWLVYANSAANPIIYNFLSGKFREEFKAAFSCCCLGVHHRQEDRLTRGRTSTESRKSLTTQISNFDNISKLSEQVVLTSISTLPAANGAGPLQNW
Protocol: as §1, §2, §3, §4, §5

[1] = HEK-293 cells transfected with human recombinant OX2, orexin-B 10 nM, pKb = co-logarithm of apparent dissociation constant, modified Cheng Prusoff
[2] = comparison table with compound of WO2011006960

SMILES	Kb (human OX1 receptors) [nM]	Kb (human OX2 receptors; [1]) [nM]	Kb (human OX2 receptors; comparison table with compound of WO2011006960, read-out: pKb OX2 (converted)) [nM]	pKb OX1 (human OX1 receptors)	pKb OX2 (human OX2 receptors; [2])
O=C(c1nc(C2CC2)ccc1-c1ccccc1)N1CC2(CC2)C[C@H]1CNc1ccc(C(F)(F)F)cn1 [Compound 3r, (S)-(6-cyclopropyl-3-phenylpyridin-2-yl)(6-(((5-(trifluoromethyl)pyridin-2-yl)amino)methyl)-5-azaspiro[2.4]heptan-5-yl)methanone]	2.51	12.6	–	–	–
Cc1ccc(-c2ncccn2)c(C(=O)N2CC3(CC3)C[C@H]2CNc2ccc(Cl)cn2)c1 [Example 51 of WO2011006960, reference compound]	–	–	> 10000	–	–
Cc1cnn(-c2ccc(C)nc2C(=O)N2CC3(CC3)C[C@H]2CNc2ccc(C(F)(F)F)cn2)c1 [Compound 3i, (S)-(6-methyl-3-(4-methyl-1H-pyrazol-1-yl)pyridin-2-yl)(6-(((5-(trifluoromethyl)pyridin-2-yl)amino)-methyl)-5-azaspiro[2.4]heptan-5-yl)methanone]	1.26	5.01	–	–	–
Cc1ccc(-c2ncccn2)c(C(=O)N2CC3(CC3)C[C@H]2CNc2ncc(C(F)(F)F)cc2Cl)n1 [Compound 3g, (S)-(6-(((3-chloro-5-(trifluoromethyl)pyridin-2-yl)amino)methyl)-5-azaspiro[2.4]heptan-5-yl)(6-methyl-3-(pyrimidin-2-yl)pyridin-2-yl)methanone]	5.01	10	–	–	–
Cc1ccc(-c2ncccn2)c(C(=O)N2CC3(CC3)C[C@H]2CNc2ccc(C(F)(F)F)cn2)c1 [Compound 1o, (S)-(5-methyl-2-(pyrimidin-2-yl)phenyl)(6-(((5-(trifluoromethyl)pyridin-2-yl)amino)methyl)-5-azaspiro[2.4]heptan-5-yl)methanone]	2	251	–	8.7	6.6
Cc1ccc(-c2ncccn2)c(C(=O)N2CC3(CC3)C[C@H]2CNc2cc(C(F)(F)F)ccn2)c1 [Compound 1n, (S)-(5-methyl-2-(pyrimidin-2-yl)phenyl)(6-(((4-(trifluoromethyl)pyridin-2-yl)amino)methyl)-5-azaspiro[2.4]heptan-5-yl)methanone]	50.1	15.8	–	7.3	7.8
O=C(c1cc(Cl)ccc1-c1ncccn1)N1CC2(CC2)C[C@H]1CNc1cc(C(F)(F)F)ccn1 [Compound 1f, (S)-(5-chloro-2-(pyrimidin-2-yl)phenyl)(6-(((4-(trifluoromethyl)pyridin-2-yl)amino)methyl)-5-azaspiro[2.4]heptan-5-yl)methanone]	7.94	12.6	–	–	–
O=C(c1ncccc1-c1ccccn1)N1CC2(CC2)C[C@H]1CNc1ccc(C(F)(F)F)cn1 [Compound E7, (S)-[2,3′-bipyridin]-2′-yl(6-(((5-(trifluoromethyl)pyridin-2-yl)amino)methyl)-5-azaspiro[2.4]heptan-5-yl)methanone]	3.98	126	–	–	–
Cc1ccc(OCc2ccccc2)c(C(=O)N2CC3(CC3)C[C@H]2CNc2ccc(C(F)(F)F)cn2)n1 [Compound 3k, (S)-(3-(benzyloxy)-6-methylpyridin-2-yl)(6-(((5-(trifluoromethyl)pyridin-2-yl)amino)methyl)-5-azaspiro[2.4]heptan-5-yl)methanone]	2.51	2.51	–	–	–
Cc1nc(C(=O)N2CC3(CC3)C[C@H]2CNc2ncc(Cl)cn2)c(-c2ccccc2)s1 [Compound 2g, (S)-(6-(((5-chloropyrimidin-2-yl)amino)methyl)-5-azaspiro[2.4]heptan-5-yl)(2-methyl-5-phenylthiazol-4-yl)methanone]	158	158	–	–	–
Cc1ccc(-c2ccccc2)c(C(=O)N2CC3(CC3)C[C@H]2CNc2ncc(C(F)(F)F)cc2F)n1 [Compound 3e, (S)-(6-(((3-fluoro-5-(trifluoromethyl)pyridin-2-yl)amino)methyl)-5-azaspiro[2.4]heptan-5-yl)(6-methyl-3-phenylpyridin-2-yl)methanone]	3.98	7.94	–	–	–
Cc1cc(C(F)(F)F)cc(NC[C@@H]2CC3(CC3)CN2C(=O)c2cc(F)ccc2-c2ncccn2)n1 [Compound 1j, (S)-(5-fluoro-2-(pyrimidin-2-yl)phenyl)(6-(((6-methyl-4-(trifluoromethyl)pyridin-2-yl)amino)methyl)-5-azaspiro[2.4]heptan-5-yl)methanone]	20	6.31	–	–	–
Cc1cc(C)nc(NC[C@@H]2CC3(CC3)CN2C(=O)c2nc(C)sc2-c2ccccc2)n1 [Compound 2f, (S)-(6-(((4,6-dimethylpyrimidin-2-yl)amino)methyl)-5-azaspiro[2.4]heptan-5-yl)(2-methyl-5-phenylthiazol-4-yl)methanone]	31.6	2.51	–	–	–
O=C(c1cc(Cl)ccc1-c1ncccn1)N1CC2(CC2)C[C@H]1CNc1nccc(C(F)(F)F)n1 [Compound 1q]	39.8	6.31	–	–	–
O=C(c1c(F)cccc1-c1ncccn1)N1CC2(CC2)C[C@H]1CNc1cc(C(F)(F)F)ccn1 [Compound 1h, (S)-(2-fluoro-6-(pyrimidin-2-yl)phenyl)(6-(((4-(trifluoromethyl)pyridin-2-yl)amino)methyl)-5-azaspiro[2.4]heptan-5-yl)methanone]	39.8	12.6	–	–	–
Cc1ccc(OCc2ccc(F)cc2)c(C(=O)N2CC3(CC3)C[C@H]2CNc2ccc(C(F)(F)F)cn2)n1 [Compound 3m, (S)-(3((4-fluorobenzyl)oxy)-6-methylpyridin-2-yl)(6-(((5-(trifluoromethyl)pyridin-2-yl)amino)methyl)-5-azaspiro[2.4]heptan-5-yl)methanone]	39.8	15.8	–	–	–
Cc1ccc(-c2ccc(C#N)cc2)c(C(=O)N2CC3(CC3)C[C@H]2CNc2ccc(C(F)(F)F)cn2)n1 [Compound E8, (S)-4-(6-methyl-2-(6-(((5-(trifluoromethyl)pyridin-2-yl)amino)methyl)-5-azaspiro[2.4]heptane-5-carbonyl)pyridin-3-yl)benzonitrile]	20	31.6	–	–	–
Cc1ccc(-c2nccs2)c(C(=O)N2CC3(CC3)C[C@H]2CNc2ccc(C(F)(F)F)cn2)n1 [Compound 3q, (S)-(6-methyl-3-(thiazol-2-yl)pyridin-2-yl)(6-(((5-(trifluoromethyl)pyridin-2-yl)amino)methyl)-5-azaspiro[2.4]heptan-5-yl)methanone]	2.51	10	–	–	–
CS(=O)(=O)c1ccc(-c2ccccc2)c(C(=O)N2CC3(CC3)C[C@H]2CNc2ccc(C(F)(F)F)cn2)c1 [Compound 1d, (S)-(4-(methylsulfonyl)-[1,1′-biphenyl]-2-yl)(6-(((5-(trifluoromethyl)pyridin-2-yl)amino)methyl)-5-azaspiro[2.4]heptan-5-yl)methanone]	200	79.4	–	–	–
Cc1nc(C(=O)N2CC3(CC3)C[C@H]2CNc2cc(C(F)(F)F)ccn2)c(-c2ccccc2)s1 [Compound 2j, (S)-(2-methyl-5-phenylthiazol-4-yl)(6-(((4-(trifluoromethyl)pyridin-2-yl)amino)methyl)-5-azaspiro[2.4]heptan-5-yl)methanone]	6.31	3.16	–	–	–
O=C(c1cc(F)ccc1-c1ncccn1)N1CC2(CC2)C[C@H]1CNc1cc(C(F)(F)F)ccn1 [Compound 1k, (S)-(5-fluoro-2-(pyrimidin-2-yl)phenyl)(6-(((4-(trifluoromethyl)pyridin-2-yl)amino)methyl)-5-azaspiro[2.4]heptan-5-yl)methanone]	50.1	7.94	–	–	–
